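Where inhibition never reached the appropriate level, the endpoint shown equals the highest concentration tested. Otherwise, values were interpolated linearly from a five-concentration, 48-hour dose response in 96-well plates. GI50 marks 50% less growth. The concentration for full growth arrest is given as TGI.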
What was measured:
Experiment in all cases: NCI anticancer screen, dose series, 48 h; in the data active = GI50 below about 0.43 µM; inactive = the rest
[1] = tested on: MOLT-4 leukemia
[2] = tested on: HOP-62 NSCLC
[3] = tested on: SF-539 CNS
[4] = tested on: SW-620 colon
[5] = tested on: HCT-15 colon
[6] = tested on: A549 NSCLC
[7] = tested on: KM12 colon
[8] = tested on: SF-268 CNS
[9] = tested on: CAKI-1 renal
[10] = tested on: MDA-MB-435
[11] = tested on: 786-0 renal
[12] = tested on: NCI-H226 lung
[13] = tested on: COLO 205 colon
[14] = tested on: ACHN renal
[15] = tested on: BT-549 breast
[16] = tested on: HCT-116 colon
[17] = tested on: LOX IMVI melanoma
[18] = tested on: EKVX NSCLC
[19] = tested on: NCI-H522 lung
[20] = tested on: SK-MEL-28 melanoma
[21] = tested on: OVCAR-4 ovarian
[22] = tested on: SNB-75 CNS
[23] = tested on: CCRF-CEM leukemia
[24] = tested on: MDA-MB-231 breast
[25] = tested on: SF-295 CNS
[26] = tested on: A498 renal
[27] = tested on: NCI-H460 lung
[28] = tested on: SK-MEL-2 melanoma
[29] = tested on: DU-145 prostate
[30] = tested on: OVCAR-8 ovarian
[31] = tested on: MALME-3M melanoma
[32] = tested on: UO-31 renal
[33] = tested on: SK-MEL-5 melanoma
[34] = tested on: HT29 colon
[35] = tested on: NCI-H23 lung
[36] = tested on: OVCAR-3 ovarian
[37] = tested on: TK-10 renal
[38] = tested on: HOP-92 NSCLC
[39] = tested on: NCI/ADR-RES ovarian
[40] = tested on: SN12C renal
[41] = tested on: IGROV1 ovarian
[42] = tested on: OVCAR-5 ovarian
[43] = tested on: MCF7 breast
[44] = tested on: UACC-62 melanoma
[45] = tested on: HS 578T breast
[46] = tested on: UACC-257 melanoma
[47] = tested on: M14 melanoma
[48] = tested on: K-562 leukemia
[49] = tested on: SNB-19 CNS
[50] = tested on: T-47D breast
[51] = tested on: SK-OV-3 ovarian
[52] = tested on: PC-3 prostate
[53] = tested on: U251 CNS
[54] = tested on: HCC-2998 colon
[55] = tested on: RPMI-8226 leukemia
[56] = tested on: HL-60(TB) leukemia
[57] = tested on: RXF 393 renal

O=C(NO)[C@@H](Cc1ccccc1)NS(=O)(=O)c1ccc(-c2ccccc2)cc1
> 25 µM: TGI [1] | TGI [2] | TGI [3] | TGI [4] | TGI [5] | TGI [6] | TGI [7] | TGI [8] | TGI [9] | TGI [10] | TGI [11] | TGI [12] | TGI [13] | TGI [14] | TGI [15] | TGI [16] | TGI [17] | TGI [18] | TGI [19] | TGI [20] | TGI [21] | TGI [22] | TGI [23] | TGI [24] | TGI [25] | TGI [26] | TGI [27] | TGI [28] | TGI [29] | TGI [30] | TGI [31] | TGI [32] | TGI [33] | TGI [34] | TGI [35] | TGI [36] | TGI [37] | TGI [39] | TGI [40] | TGI [41] | TGI [42] | TGI [43] | TGI [44] | TGI [45] | TGI [46] | TGI [47] | TGI [48] | TGI [49] | TGI [50] | TGI [51] | TGI [52] | TGI [53] | TGI [54]
20.9 µM: TGI [38]
inactive: GI50 [1] 9.43 µM | GI50 [2] 18.1 µM | GI50 [3] 9.56 µM | GI50 [4] 21.2 µM | GI50 [5] > 25000 nM | GI50 [6] > 25 µM | GI50 [7] > 25 µM | GI50 [8] 11.6 µM | GI50 [9] 9.6 µM | GI50 [10] 13.4 µM | GI50 [11] 11.9 µM | GI50 [12] > 25 µM | GI50 [13] > 25000 nM | GI50 [14] 12.2 µM | GI50 [15] > 25 µM | GI50 [16] 11.7 µM | GI50 [17] 11.9 µM | GI50 [18] 15.7 µM | GI50 [19] > 25 µM | GI50 [20] > 25000 nM | GI50 [21] > 25 µM | GI50 [22] > 25 µM | GI50 [23] > 25 µM | GI50 [24] > 25 µM | GI50 [25] > 25 µM | GI50 [26] > 25 µM | GI50 [27] 13.6 µM | GI50 [28] > 25 µM | GI50 [29] 11.1 µM | GI50 [30] 22.5 µM | GI50 [31] > 25000 nM | GI50 [32] 13.2 µM | GI50 [33] 20.6 µM | GI50 [34] > 25000 nM | GI50 [35] > 25 µM | GI50 [36] 13.6 µM | GI50 [37] 19.1 µM | GI50 [38] 4.7 µM | GI50 [39] > 25 µM | GI50 [40] > 25 µM | GI50 [41] 8.52 µM | GI50 [42] 7.13 µM | GI50 [43] > 25 µM | GI50 [44] > 25000 nM | GI50 [45] > 25 µM | GI50 [46] > 25000 nM | GI50 [47] > 25000 nM | GI50 [48] 10.1 µM | GI50 [49] > 25 µM | GI50 [50] > 25 µM | GI50 [51] > 25 µM | GI50 [52] 7.97 µM | GI50 [53] 21.3 µM | GI50 [54] > 25 µM

CC([C@H]1CCC2C3CCC4C[C@@H](N)CC[C@]4(C)C3CC[C@@]21C)N(C)C (some centres not stated)
> 53.6 µM: TGI [30]
21.4 µM: TGI [7]
22.5 µM: TGI [25]
25.9 µM: TGI [26] | TGI [38]
5.02 µM: TGI [16]
4.98 µM: TGI [3]
4.37 µM: TGI [13]
24.7 µM: TGI [6]
7.74 µM: TGI [32]
3.54 µM: TGI [47]
5.42 µM: TGI [46]
5.11 µM: TGI [31]
30.4 µM: TGI [51]
48.7 µM: TGI [39]
5.67 µM: TGI [44]
17.9 µM: TGI [50]
18.1 µM: TGI [9] | TGI [43]
38.9 µM: TGI [21]
16.1 µM: TGI [45]
11.7 µM: TGI [8] | TGI [55]
> 45.9 µM: TGI [12]
13.2 µM: TGI [56]
> 48.4 µM: TGI [29]
32.7 µM: TGI [49]
26.3 µM: TGI [54]
54.8 µM: TGI [18]
28.1 µM: TGI [15]
28.3 µM: TGI [37]
5.59 µM: TGI [34]
33 µM: TGI [52]
3.66 µM: TGI [20]
35 µM: TGI [41]
21.2 µM: TGI [36]
11.6 µM: TGI [11]
37.2 µM: TGI [35]
12 µM: TGI [2]
6.04 µM: TGI [27]
17.2 µM: TGI [1]
16.5 µM: TGI [24]
5.27 µM: TGI [10]
23.3 µM: TGI [23]
inactive: GI50 [1] 5.02 µM | GI50 [2] 6.1 µM | GI50 [3] 2.01 µM | GI50 [4] 2.74 µM | GI50 [5] 1590 nM | GI50 [6] 8.45 µM | GI50 [7] 7.55 µM | GI50 [8] 3.34 µM | GI50 [9] 5.67 µM | GI50 [55] 3.04 µM | GI50 [10] 2.26 µM | GI50 [11] 4.99 µM | GI50 [12] 12.4 µM | GI50 [13] 1890 nM | GI50 [14] 8.99 µM | GI50 [56] 5.55 µM | GI50 [15] 5.9 µM | GI50 [16] 1.9 µM | GI50 [17] 1.61 µM | GI50 [18] 13.8 µM | GI50 [19] 7.25 µM | GI50 [20] 1910 nM | GI50 [21] 9.12 µM | GI50 [22] 8.15 µM | GI50 [23] 6.69 µM | GI50 [24] 5.72 µM | GI50 [25] 6.46 µM | GI50 [26] 9.69 µM | GI50 [27] 2.4 µM | GI50 [28] 8.45 µM | GI50 [29] 14.3 µM | GI50 [30] 15.7 µM | GI50 [31] 1880 nM | GI50 [32] 2.34 µM | GI50 [33] 1.95 µM | GI50 [34] 1290 nM | GI50 [35] 13.8 µM | GI50 [36] 6.96 µM | GI50 [37] 12 µM | GI50 [38] 4.53 µM | GI50 [39] 15.1 µM | GI50 [40] 8.17 µM | GI50 [41] 8.88 µM | GI50 [42] 17.5 µM | GI50 [43] 4.17 µM | GI50 [44] 2360 nM | GI50 [45] 3.35 µM | GI50 [46] 2400 nM | GI50 [47] 1790 nM | GI50 [57] 4.55 µM | GI50 [48] 2.27 µM | GI50 [49] 15.8 µM | GI50 [50] 3.23 µM | GI50 [51] 13.4 µM | GI50 [52] 8.52 µM | GI50 [53] 3.61 µM | GI50 [54] 12.8 µM
24.9 µM: TGI [22]
7.73 µM: TGI [4]
5.23 µM: TGI [33]
21.3 µM: TGI [19] | TGI [28]
21.6 µM: TGI [14]
41.4 µM: TGI [42]
14.9 µM: TGI [57]
4.72 µM: TGI [5]
15.6 µM: TGI [53]
3.44 µM: TGI [17]
7.34 µM: TGI [48]
25.7 µM: TGI [40]

Source: PubChem BioAssay (NCI)
